Reference: patent US6596289B1, “Anti-cellulite pantyhose” (priority 1998, dated 2003)

Experiment: Extraction and measurement of candidate molecules from loaded pantyhose in buffer
Assay type: physicochemical
Conditions: for bonding to the fabric: conclusion from data of Table I; for Micrograms per/cm^2 @ 2 hr (amount extracted) / Micrograms per/cm @ 4 hr (amount extracted): swatch of treated fabric immersed in buffer solution; for Micrograms per/cm @ 4 hr (amount extracted): four hours
Procedure: Step 1: Determining UV Max Absorbance nm of Test Substances
Prepare 0.2% aqueous solutions of the substance to be tested, and run a UV/VIS scan on a scanning spectrophotometer. Note the peak absorbance level of the scan. The wave length at which this occurs is the UV Max value for that candidate.
Step 2: Running Standard Curves of Candidate Molecules
Prepare standards of the test substances at the following concentrations: 400 uM, 200 uM, 100 uM, 50 uM and 25 uM. Read at the appropriate wavelength. Plot the absorbance readings vs candidate concentration to check linearity.
Step 3: Loading Pantyhose with Candidate Molecules a. Wash pantyhose two times with water. b. Treat pantyhose with 1% solution of polyethylenimine (PEI) with constant agitation for 30 minutes. c. Wash pantyhose with water. d. Treat pantyhose with 0.2% of the test substance with constant agitation for three hours. e. Wash pantyhose and allow to dry.
Step 4: Extraction and Measurement of Candidate Molecules from Pantyhose Six sections were removed from each pair of hose, two sections from each of the foot, calf and thigh. A two piece, interlocking circular template was used. This template provided a way to obtain consistent sample size and also held the hose sections in position for sample extraction. Each template containing the pantyhose section was placed in 10 ml of buffer for 4 hours. An untreated pair of pantyhose was used as the blank and tested the same as the samples. At the end of two hours, and again at 4 hours, the buffer solution was read at the appropriate wave length using a quartz curette. Results were calculated from the standard curve and reported in micrograms/square centimeter (ug/cm^2).

SMILES | bonding to the fabric | Micrograms per/cm^2 @ 2 hr (amount extracted) | Micrograms per/cm @ 4 hr (amount extracted)
O=C(O)CCCC[C@@H]1CCSS1 (racemic) [Lipoic Acid, lipoic acid] | bind in adequate degrees | 1.2 Micrograms per/cm^2 | 1.5 Micrograms per/cm
O=C1O[C@H]([C@@H](O)CO)C(O)=C1O [Ascorbic Acid, ascorbic acid] | bind in adequate degrees | 0.6 Micrograms per/cm^2 | 0.7 Micrograms per/cm
O=c1c(-c2ccc(O)cc2)coc2cc(O)cc(O)c12 [Genistein, 4′,5,7-trihydroxyisoflavone] | most strongly bonded | 15.0 Micrograms per/cm^2 | 15.1 Micrograms per/cm
